Reference: patent US6399643B1, “Spiroimidazolidine derivatives, their preparation, their use and pharmaceutical preparations formed therefrom” (Aventis Pharma Deutschland GmbH, priority 1999, dated 2002)
Counter-ions that a name gives are not always drawn.

Target: T1, interaction between VCAM-1 and VLA-4 (Homo sapiens, UniProt P05556+P13612)
T1 construct: supplied in their natural form as surface molecules on human U937 cells; host or cells: human U937 cells (VLA-4, endogenous); the partner hVCAM-1(1-3)-IgG was made in house in transfected COS cells (ATCC CRL1651) and used as culture supernatant
T1 sequence (P13612 34-1032): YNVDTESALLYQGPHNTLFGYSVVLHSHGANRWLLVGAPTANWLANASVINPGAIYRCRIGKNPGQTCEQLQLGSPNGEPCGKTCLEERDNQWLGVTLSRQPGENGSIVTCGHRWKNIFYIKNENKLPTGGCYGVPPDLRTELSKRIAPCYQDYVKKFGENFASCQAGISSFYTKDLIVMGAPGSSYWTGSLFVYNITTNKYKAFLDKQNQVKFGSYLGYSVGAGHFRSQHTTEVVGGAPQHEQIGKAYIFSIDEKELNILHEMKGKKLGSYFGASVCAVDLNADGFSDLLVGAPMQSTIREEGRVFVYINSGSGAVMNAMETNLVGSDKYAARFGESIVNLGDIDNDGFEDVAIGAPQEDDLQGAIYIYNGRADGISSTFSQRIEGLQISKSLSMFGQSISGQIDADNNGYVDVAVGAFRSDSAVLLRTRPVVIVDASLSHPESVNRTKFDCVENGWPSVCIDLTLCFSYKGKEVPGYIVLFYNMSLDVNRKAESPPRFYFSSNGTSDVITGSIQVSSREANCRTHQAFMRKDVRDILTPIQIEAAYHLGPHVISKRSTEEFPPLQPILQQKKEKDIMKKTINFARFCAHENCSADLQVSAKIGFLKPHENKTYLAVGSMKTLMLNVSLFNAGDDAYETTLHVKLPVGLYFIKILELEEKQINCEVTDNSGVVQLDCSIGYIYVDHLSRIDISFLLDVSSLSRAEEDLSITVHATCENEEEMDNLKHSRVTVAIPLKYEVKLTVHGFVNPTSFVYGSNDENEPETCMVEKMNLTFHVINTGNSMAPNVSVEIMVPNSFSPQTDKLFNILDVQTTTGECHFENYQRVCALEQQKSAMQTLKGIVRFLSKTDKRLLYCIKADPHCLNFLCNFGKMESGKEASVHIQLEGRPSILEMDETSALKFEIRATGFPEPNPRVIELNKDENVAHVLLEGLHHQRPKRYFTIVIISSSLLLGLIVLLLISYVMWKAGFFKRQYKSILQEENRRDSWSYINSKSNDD
T1 sequence (P05556 21-798): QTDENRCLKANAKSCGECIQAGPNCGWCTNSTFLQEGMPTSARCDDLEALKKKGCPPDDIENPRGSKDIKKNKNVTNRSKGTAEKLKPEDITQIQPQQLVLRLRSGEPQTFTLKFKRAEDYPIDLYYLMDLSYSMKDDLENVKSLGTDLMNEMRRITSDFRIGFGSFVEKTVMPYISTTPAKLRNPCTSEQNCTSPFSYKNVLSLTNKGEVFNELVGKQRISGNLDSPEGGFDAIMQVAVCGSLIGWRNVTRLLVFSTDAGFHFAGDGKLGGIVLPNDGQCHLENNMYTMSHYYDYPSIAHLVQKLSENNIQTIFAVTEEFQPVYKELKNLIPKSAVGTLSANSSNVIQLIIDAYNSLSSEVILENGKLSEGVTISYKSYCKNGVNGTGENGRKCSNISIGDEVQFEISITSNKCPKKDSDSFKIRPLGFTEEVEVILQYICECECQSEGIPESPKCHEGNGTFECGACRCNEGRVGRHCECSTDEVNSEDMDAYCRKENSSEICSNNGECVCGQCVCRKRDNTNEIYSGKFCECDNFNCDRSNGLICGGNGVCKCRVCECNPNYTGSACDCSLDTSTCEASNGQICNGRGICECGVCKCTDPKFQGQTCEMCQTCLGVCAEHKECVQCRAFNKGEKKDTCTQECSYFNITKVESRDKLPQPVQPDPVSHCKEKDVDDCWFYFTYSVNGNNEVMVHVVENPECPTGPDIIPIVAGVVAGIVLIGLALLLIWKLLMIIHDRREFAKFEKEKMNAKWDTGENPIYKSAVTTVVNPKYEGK
Test: U937/VCAM-1 cell adhesion test (adhesion of U937 cells to hVCAM-1(1-3)-IgG)
Assay type: cell-based
Conditions: inhibition of adhesion of human U937 cells (ATCC CRL 1593) to hVCAM-1(1-3)-IgG
Source text: A) U937/VCAM-1 Cell Adhesion Test
The test method used for the activity of the compounds of the formula I on the interaction between VCAM-1 and VLA-4 is the assay described below, which is specific for this interaction. The cellular binding components, that is the VLA-4 integrins, are supplied in their natural form as surface molecules on human U937 cells (ATCC CRL 1593), which belong to the leukocytes group. The specific binding components used are genetically engineered recombinant soluble fusion proteins, consisting of the extracytoplasmic domain of human VCAM-1 and the constant region of a human immunoglobulin of the subclass IgG1.
Assay for the Measurement of the Adhesion of U937 Cells (ATCC CRL 1593) to hVCAM-1 (1-3)-IgG
1. Preparation of Human VCAM-1(1-3)-IgG and Human CD4-IgG
A genetic construct for the expression of the extracellular domain of human VCAM-1, combined with the genetic sequence of the heavy chain of human immunoglobulin IgG1 (hinge, CH2 and CH3 regions) (from Brian Seed, Massachusetts General Hospital, Boston, USA; cf. Damle and Aruffo, Proc. Natl. Acad. Sci. USA 1991, 88, 6403), was employed. The soluble fusion protein hVCAM-1(1-3)-IgG contained the three aminoterminal extracellular immunoglobulin-like domains of human VCAM-1 (Damle and Aruffo, Proc. Natl. Acad. Sci. USA 1991, 88, 6403). CD4-IgG (Zettlmeissl et al., DNA and Cell Biology 1990, 9, 347) served as a fusion protein for negative controls. The recombinant proteins were expressed as soluble proteins after DEAE/dextran-mediated DNA transfection in COS cells (ATCC CRL1651) according to standard procedures (Ausubel et al., Current protocols in molecular biology, John Wiley & Sons, Inc., 1994).
2. Assay for the Measurement of the Adhesion of U937 Cells to hVCAM-1(1-3)-IgG
2.1 96-well microtiter test plates (Nunc Maxisorb) were incubated at room temperature for 1 hour with 100 μl/well of a goat-anti-human IgG antibody solution (10 μg/ml in 50 mM tris, pH 9.5). After removal of the antibody solution, washing was carried out once with PBS.
2.2 150 μl/well of a blocking buffer (1% BSA in PBS) were incubated on the plates at room temperature for 0.5 hour. After removal of the blocking buffer, washing was carried out once with PBS.
2.3 100 μl per well of a cell culture supernatant of transfected COS cells were incubated on the plates at room temperature for 1.5 hours. The COS cells were transfected with a plasmid which codes for the three N-terminal immunoglobulin-like domains of VCAM-1, coupled to the Fc portion of human IgG1 (hVCAM-1 (1-3)-IgG). The content of hVCAM-1(1-3)-IgG was about 0.5-1 μg/ml. After removing the culture supernatant, washing was carried out once with PBS.
2.4 The plates were incubated at room temperature for 20 minutes with 100 μl/well of Fc receptor blocking buffer (1 mg/ml of γ-globulin, 100 mM NaCl, 100 μM MgCl2, 100 μM MnCl2, 100 μM CaCl2, 1 mg/ml of BSA in 50 mM HEPES, pH 7.5). After removal of the Fc receptor blocking buffer, washing was carried out once with PBS.
2.5 20 μl of binding buffer (100 μM NaCl, 100 μM MgCl2, 100 μM MnCl2, 100 μM CaCl2, 1 mg/ml of BSA in 50 mM HEPES, pH 7.5) were initially introduced, and the substances to be tested were added in 10 μl of binding buffer and incubated for 20 minutes. The controls used were antibodies against VCAM-1(BBT, No. BBA6) and against VLA-4(Immunotech, No. 0764).
2.6 U937 cells were incubated in Fc receptor blocking buffer for 20 minutes and then pipetted in at a concentration of 1×10^6/ml and in an amount of 100 μl per well ([…]).
2.7 The plates were slowly immersed at an angle of 45° in stop buffer (100 mM NaCl, 100 μM MgCl2, 100 μM MnCl2, 100 μM CaCl2 in 25 mM Tris, pH 7.5) and shaken off. The process was repeated.
2.8 50 μl/well of a dye solution ([…] of Hoechst Dye 33258, 4% formaldehyde, 0.5% Triton X-100 in PBS) were then incubated on the plates for 15 minutes. […]

SMILES	IC50 [nM]
COc1ccc([C@H](CC(=O)O)NC(=O)[C@H](CC(C)C)N2C(=O)N(Cc3ccc(NC(=O)Nc4ccccc4)cc3)C3(CCCCC3)C2=O)cc1OC [Example 21, (S)-3-((S)-2-(4,4-Pentamethylene-3-(4-(3-phenylureido)benzyl)-2,5-dioxoimidazolidin-1-yl)-2-(2-methylpropyl)acetylamino)-3-(3,4-dimethoxyphenyl)propionic acid tromethamine salt]	3
Cc1ccccc1NC(=O)Nc1ccc(CN2C(=O)N([C@@H](CC(C)C)C(=O)N[C@@H](CC(=O)O)c3ccccc3)C(=O)C23CCCCC3)cc1 [Example 8, (S)-3-((S)-2-(4,4-Pentamethylene-3-(4-(3-(2-methylphenyl)ureido)benzyl)-2,5-dioxoimidazolidin-1-yl)-2-(2-methylpropyl)acetylamino)-3-phenylpropionic acid]	3.2
CC(C)C[C@@H](C(=O)N[C@@H](CC(=O)O)c1ccccc1)N1C(=O)N(Cc2ccc(NC(=O)Nc3ccccc3)cc2)C2(CCCCC2)C1=O [Example 2, (S)-3-((S)-2-(4,4-Pentamethylene-3-(4-(3-phenylureido)benzyl)-2,5-dioxoimidazolidin-1-yl)-2-(2-methylpropyl)acetylamino)-3-phenylpropionic acid tromethamine salt]	4.5
Cc1ccccc1NC(=O)Nc1ccc(CN2C(=O)N([C@@H](CC(C)C)C(=O)N[C@@H](CC(=O)O)c3ccccc3)C(=O)C23CCCCC3)cc1 [Example 23, (S)-3-((S)-2-(4,4-Pentamethylene-3-(4-(3-(2-methylphenyl)ureido)benzyl)-2,5-dioxoimidazolidin-1-yl)-2-(2-methylpropyl)acetylamino)-3-phenylpropionic acid tromethamine salt]	5.5
CC(C)C[C@@H](C(=O)N[C@H](C)CC(=O)O)N1C(=O)N(Cc2ccc(NC(=O)Nc3ccccc3)cc2)C2(CCCCC2)C1=O [Example 3, (R)-3-((S)-2-(4,4-Pentamethylene-3-(4-(3-phenylureido)benzyl)-2,5-dioxoimidazolidin-1-yl)-2-(2-methylpropyl)acetylamino)-3-methylpropionic acid]	17
CC(C)C[C@H](CC(=O)O)NC(=O)[C@H](CC(C)C)N1C(=O)N(Cc2ccc(NC(=O)Nc3ccccc3)cc2)C2(CCCCC2)C1=O [Example 4, (R)-3-((S)-2-(4,4-Pentamethylene-3-(4-(3-phenylureido)benzyl)-2,5-dioxoimidazolidin-1-yl)-2-(2-methylpropyl)acetylamino)-3-(2-methylpropyl)propionic acid]	85.4
Cc1ccccc1NC(=O)Nc1ccc(CN2C(=O)N([C@@H](CC(C)C)C(=O)N[C@H](C)CC(=O)O)C(=O)C23CCCCC3)cc1 [Example 24, (R)-3-((S)-2-(4,4-Pentamethylene-3-(4-(3-(2-methylphenyl)ureido)benzyl)-2,5-dioxoimidazolidin-1-yl)-2-(2-methylpropyl)acetylamino)-3-methylpropionic acid tromethamine salt]	1.7

The remaining lines, values ahead:

IC50 [nM]	SMILES
3.4	COc1ccc([C@H](CC(=O)O)NC(=O)[C@H](CC(C)C)N2C(=O)N(Cc3ccc(NC(=O)Nc4ccccc4C)cc3)C3(CCCCC3)C2=O)cc1 [Example 27, (S)-3-((S)-2-(4,4-Pentamethylene-3-(4-(3-(2-methylphenyl)ureido)benzyl)-2,5-dioxoimidazolidin-1-yl)-2-(2-methylpropyl)acetylamino)-3-(4-methoxyphenyl)propionic acid tromethamine salt]
0.8	COc1ccc([C@H](CC(=O)O)NC(=O)[C@H](CC(C)C)N2C(=O)N(Cc3ccc(NC(=O)Nc4ccccc4C)cc3)C3(CCCCC3)C2=O)cc1OC [Example 31, (S)-3-((S)-2-(4,4-Pentamethylene-3-(4-(3-(2-methylphenyl)ureido)benzyl)-2,5-dioxoimidazolidin-1-yl)-2-(2-methylpropyl)acetylamino)-3-(3,4-dimethoxyphenyl)propionic acid]
2.1	COc1ccc([C@H](CC(=O)O)NC(=O)[C@H](CC(C)C)N2C(=O)N(Cc3ccc(NC(=O)Nc4ccccc4C)cc3)C3(CCCCC3)C2=O)c(OC)c1 [Example 28, (S)-3-((S)-2-(4,4-Pentamethylene-3-(4-(3-(2-methyphenyl)ureido)benzyl)-2,5-dioxoimidazolidin-1-yl)-2-(2-methylpropyl)acetylamino)-3-(2,4-dimethoxyphenyl)propionic acid]
2.6	COc1ccc([C@H](CC(=O)O)NC(=O)[C@H](CC(C)C)N2C(=O)N(Cc3ccc(NC(=O)Nc4ccccc4C)cc3)C3(CCCCC3)C2=O)cc1 [Example 26, (S)-3-((S)-2-(4,4-Pentamethylene-3-(4-(3-(2-methylphenyl)ureido)benzyl)-2,5-dioxoimidazolidin-1-yl)-2-(2-methylpropyl)acetylamino)-3-(4-methoxyphenyl)propionic acid]
0.8	COc1ccc([C@H](CC(=O)O)NC(=O)[C@H](CC2CC2)N2C(=O)N(Cc3ccc(NC(=O)Nc4ccccc4C)cc3)C3(CCCCC3)C2=O)cc1OC [Example 39, (S)-3-((S)-2-(4,4-Pentamethylene-3-(4-(3-(2-methylphenyl)ureido)benzyl)-2,5-dioxoimidazolidin-1-yl)-2-cyclopropylmethylacetylamino)-3-(3,4-dimethoxyphenyl)propionic acid]
1.9	COc1ccc([C@H](CC(=O)O)NC(=O)[C@H](CC(C)C)N2C(=O)N(Cc3ccc(NC(=O)Nc4ccccc4C)cc3)C3(CCCCC3)C2=O)c(OC)c1 [Example 29, (S)-3-((S)-2-(4,4-Pentamethylene-3-(4-(3-(2-methylphenyl)ureido)benzyl-2,5-dioxoimidazolidin-1-yl)-2-(2-methylpropyl)acetylamino)-3-(2,4-dimethoxyphenyl)propionic acid tromethamine salt]
1.3	COc1cc(CN2C(=O)N([C@@H](CC(C)C)C(=O)N[C@@H](CC(=O)O)c3ccc(OC)c(OC)c3)C(=O)C23CCCCC3)ccc1NC(=O)Nc1ccccc1C [Example 37, (S)-3-((S)-2-(4,4-Pentamethylene-3-(4-(3-(2-methylphenyl)ureido)-3-methoxybenzyl)-2,5-dioxoimidazolidin-1-yl)-2-(2-methylpropyl)acetylamino)-3-(3,4-dimethoxyphenyl)propionic acid]
3.6	COc1ccc([C@H](CC(=O)O)NC(=O)[C@H](CC(C)C)N2C(=O)N(Cc3ccc(NC(=O)Nc4ccccc4C)cc3)C3(CCCCC3)C2=O)c(OC)c1 [Example 30, (S)-3-((S)-2-(4,4-Pentamethylene-3-(4-(3-(2-methylphenyl)ureido)benzyl)-2,5-dioxoimidazolidin-1-yl)-2-(2-methylpropyl)acetylamino)-3-(2,4-dimethoxyphenyl)propionic acid sodium salt]
